# Results as given in ChEMBL document CHEMBL1201862, “PubChem BioAssay data set” (2004).
#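 96-well plates; 48 h exposure; 5 concentrations. Endpoints by linear interpolation between flanking doses. Not reached: highest tested concentration assigned. The concentration for 50% growth inhibition is given as GI50.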 Active and inactive are the calls of the source. No stated cut-off is given here; in the data, active = GI50 up to about 1.1 µM and inactive = higher.
# How the values were obtained:
# Experiment in all cases: NCI-60 cell line screen, 48 h
# MOLT-4 = test system: MOLT-4
# RPMI-8226 = test system: RPMI-8226
# KM12 = test system: KM12
# OVCAR-8 = test system: OVCAR-8
# HCC 2998 = test system: HCC 2998
# MDA-MB-231 = test system: MDA-MB-231
# NCI-H23 = test system: NCI-H23
# A549 = test system: A549
# BT-549 = test system: BT-549
# SW-620 = test system: SW-620
# SK-MEL-28 = test system: SK-MEL-28
# DU-145 = test system: DU-145
# NCI/ADR-RES = test system: NCI/ADR-RES
# UACC-62 = test system: UACC-62
# SF-539 = test system: SF-539
# UO-31 = test system: UO-31
# HCT-15 = test system: HCT-15
# COLO 205 = test system: COLO 205
# A498 = test system: A498
# Hs-578T = test system: Hs-578T
SMILES,GI50 (MOLT-4),GI50 (RPMI-8226),GI50 (KM12),GI50 (OVCAR-8),GI50 (HCC 2998),GI50 (MDA-MB-231),GI50 (NCI-H23),GI50 (A549),GI50 (BT-549),GI50 (SW-620),GI50 (SK-MEL-28),GI50 (DU-145),GI50 (NCI/ADR-RES),GI50 (UACC-62),GI50 (SF-539),GI50 (UO-31),GI50 (HCT-15) [µM],GI50 (COLO 205),GI50 (A498),GI50 (Hs-578T)
COc1cccc(-c2nc(-c3cnccn3)n(COCCO)n2)c1,> 100 µM (inactive),> 100 µM (inactive),> 100 µM (inactive),> 100 µM (inactive),> 100 µM (inactive),> 100 µM (inactive),> 100 µM (inactive),> 100 µM (inactive),> 100 µM (inactive),> 100 µM (inactive),> 100 µM (inactive),> 100 µM (inactive),> 100 µM (inactive),> 100 µM (inactive),> 100 µM (inactive),> 100 µM (inactive),> 100,> 100 µM (inactive),,
O/N=C1\CCCCC1C(NO)c1ccccc1 (stereo not given),69.3 µM (inactive),> 100 µM (inactive),> 100 µM (inactive),> 100 µM (inactive),> 100 µM (inactive),,> 100 µM (inactive),> 100 µM (inactive),,> 100 µM (inactive),> 100 µM (inactive),,,> 100 µM (inactive),> 100 µM (inactive),89.5 µM (inactive),> 100,> 100 µM (inactive),> 100 µM (inactive),
CC(C)Oc1c(O)c2c3c(oc(=O)n3C=CC2c2ccccc2)c1OC(C)C (stereo not given),31 µM (inactive),,21.5 µM (inactive),31.9 µM (inactive),19 µM (inactive),30.3 µM (inactive),20.2 µM (inactive),27.3 µM (inactive),,32 µM (inactive),22.5 µM (inactive),34 µM (inactive),27.5 µM (inactive),,19.7 µM (inactive),14.2 µM (inactive),12.8,22.1 µM (inactive),,
CC(C)CC(=O)CC(C)[C@]1(CCCOCc2ccccc2)C(=O)N2CCC3(C[C@@]24CCC[C@H]41)OCCO3 (stereo not given in full),> 10 µM (inactive),> 10 µM (inactive),> 10 µM (inactive),> 10 µM (inactive),> 10 µM (inactive),> 10 µM (inactive),> 10 µM (inactive),,,> 10 µM (inactive),,,> 10 µM (inactive),,> 10 µM (inactive),> 10 µM (inactive),> 10,> 10 µM (inactive),> 10 µM (inactive),
CN(C)c1cccc2c1C(=O)C=CC21c2ccc(N(C)C)c3c(N(C)C)ccc(c23)C(c2ccccc2)C1c1ccccc1 (stereo not given),0.592 µM (active),15.9 µM (inactive),14.3 µM (inactive),13.5 µM (inactive),17.6 µM (inactive),8.75 µM (inactive),24.7 µM (inactive),27.5 µM (inactive),,19.8 µM (inactive),17.5 µM (inactive),42.5 µM (inactive),22.6 µM (inactive),20.1 µM (inactive),12.1 µM (inactive),4.8 µM (inactive),27.3,11.3 µM (inactive),6.68 µM (inactive),10 µM (inactive)
Cc1ccc2c(c1)C(=O)C1(C2)Cc2cccc(C)c2C1=O (stereo not given),> 100 µM (inactive),> 100 µM (inactive),> 100 µM (inactive),> 100 µM (inactive),> 100 µM (inactive),> 100 µM (inactive),> 100 µM (inactive),> 100 µM (inactive),,> 100 µM (inactive),> 100 µM (inactive),> 100 µM (inactive),> 100 µM (inactive),77.3 µM (inactive),> 100 µM (inactive),4.41 µM (inactive),> 100,> 100 µM (inactive),> 100 µM (inactive),> 100 µM (inactive)
Cc1ccc(C(=O)Nc2ccc(S(=O)(=O)O)c3cc(S(=O)(=O)O)cc(S(=O)(=O)O)c23)cc1NC(=O)Nc1cc(C(=O)Nc2ccc(S(=O)(=O)O)c3cc(S(=O)(=O)O)cc(S(=O)(=O)O)c23)ccc1C,> 87.5 µM (inactive),> 87.5 µM (inactive),,> 87.5 µM (inactive),> 87.5 µM (inactive),> 87.5 µM (inactive),> 87.5 µM (inactive),> 87.5 µM (inactive),> 87.5 µM (inactive),> 87.5 µM (inactive),> 87.5 µM (inactive),> 87.5 µM (inactive),,> 87.5 µM (inactive),,> 87.5 µM (inactive),> 87.5,,> 87.5 µM (inactive),
COC(=O)C1=Cc2cc3c(cc2[C@H](c2ccc4c(c2)OCO4)C1C(=O)OC)OCO3 (stereo not given in full),35.6 µM (inactive),> 100 µM (inactive),67.1 µM (inactive),> 100 µM (inactive),> 100 µM (inactive),,> 100 µM (inactive),> 100 µM (inactive),,71.3 µM (inactive),> 100 µM (inactive),,,58.6 µM (inactive),> 100 µM (inactive),> 100 µM (inactive),> 100,37.8 µM (inactive),0.0745 µM (active),
